Among the test systems are DLD-1 colon; DMS 114 small cell lung; HOP-18 NSCLC; K-562 leukemia; LXFL 529 NSCLC; SK-MEL-2 melanoma; SK-MEL-28 melanoma; SNB-78 CNS; TK-10 renal; UACC-62 melanoma.
Common to all, as to test: DTP human tumour cell line panel, 48 h

Molecules are shown by their SMILES. “And” between values parts separate entries of the source, which are not always exact repeats. Equal entries are not always repeated.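 The compound was tested at five concentrations on cells cultured in 96-well plates, with a 48-hour exposure period. Here, GI50 denotes the concentration required for 50% inhibition of growth. Definition used: TGI = concentration required for complete inhibition of growth.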 Bounds are passed on as bounds.

As to `O=Cc1ccc2c(c1-c1c(C=O)ccc3c1OCO3)OCO2`, the TGI in the assay on DLD-1 colon, with DMS 114 small cell lung, in the assay on HOP-18 NSCLC, in the assay with K-562 leukemia, with LXFL 529 NSCLC and in the assay on SK-MEL-2 melanoma was more than 100 µM throughout. Moreover, the total growth inhibition concentration (TGI) in the assay with SK-MEL-28 melanoma, with SNB-78 CNS, with TK-10 renal and with UACC-62 melanoma was more than 100 µM each time.
For the molecule `CC(=O)[O][Ga]([Br])[O]C(C)=O`, the GI50 with DLD-1 colon, in the assay with HOP-18 NSCLC, in the assay on K-562 leukemia, with LXFL 529 NSCLC, with SK-MEL-2 melanoma and in the assay with SK-MEL-28 melanoma was more than 100 µM each time. Besides, the GI50 with SNB-78 CNS, in the assay on TK-10 renal and with UACC-62 melanoma was more than 100 µM in each case. In addition, the total growth inhibition concentration (TGI) in the assay with DLD-1 colon, with HOP-18 NSCLC, in the assay on K-562 leukemia, with LXFL 529 NSCLC, in the assay on SK-MEL-2 melanoma and with SK-MEL-28 melanoma was more than 100 µM each time. Further, the TGI in the assay on SNB-78 CNS, with TK-10 renal and in the assay on UACC-62 melanoma was more than 100 µM throughout.
For the molecule `N#CC(C(=O)C(=O)Nc1ccc(Cl)cc1)c1ccccc1` (stereo unspecified), the TGI with DLD-1 colon, in the assay on DMS 114 small cell lung, in the assay with HOP-18 NSCLC, in the assay with K-562 leukemia, in the assay on LXFL 529 NSCLC and with SK-MEL-2 melanoma was more than 100 µM each time. Besides, the concentration for total growth inhibition (TGI) (usually the concentration giving total growth inhibition) was more than 100 µM in the assay on SK-MEL-28 melanoma, more than 100 µM in the assay on SNB-78 CNS, more than 100 µM in the assay on TK-10 renal and 77.9 µM with UACC-62 melanoma.
Consider `CC[C@H]1CN2CCc3cc(OC)c(OC)cc3[C@@H]2C[C@@H]1C[C@H]1NCCc2c1[nH]c1ccc(O)cc21`, for which the GI50 (as a rule, the concentration at which growth is held to half of that of the control) in the assay with DLD-1 colon was 0.144 µM; with DMS 114 small cell lung, 0.0047 µM and 0.0133 µM; in the assay on HOP-18 NSCLC, 0.188 µM and 0.0283 µM; in the assay with K-562 leukemia it was 0.0263 µM and 0.0353 µM; with SK-MEL-2 melanoma, 0.0228 µM; in the assay with SK-MEL-28 melanoma, 0.0316 µM and 0.0425 µM. Further, the GI50 with SNB-78 CNS was 0.0273 µM and 0.0257 µM; with TK-10 renal it was 0.0943 µM; in the assay on UACC-62 melanoma it was 0.0249 µM and 0.0448 µM. The TGI in the assay with DLD-1 colon is 0.246 µM and 0.57 µM and 1.58 µM; with DMS 114 small cell lung, 0.0184 µM and 0.0571 µM; in the assay on HOP-18 NSCLC it was 0.711 µM and 0.0824 µM and 0.449 µM; in the assay with SK-MEL-2 melanoma, 0.052 µM and 0.0353 µM; in the assay on SK-MEL-28 melanoma, 0.0813 µM and 0.256 µM and 0.41 µM; in the assay on SNB-78 CNS, 0.0828 µM and 0.0713 µM and 0.11 µM. The TGI in the assay on TK-10 renal is 0.277 µM and 0.875 µM and 0.728 µM.
Turning to `CC(C)N(CCn1c2c3ccccc3ccc2c2oc(=O)c3ccccc3c21)C(C)C`, the TGI in the assay on DLD-1 colon is more than 100 µM; with DMS 114 small cell lung it was more than 100 µM; with HOP-18 NSCLC, more than 86.6 µM; in the assay on K-562 leukemia it was more than 100 µM; in the assay on LXFL 529 NSCLC, more than 100 µM; in the assay with SK-MEL-2 melanoma it was more than 100 µM. Moreover, the TGI in the assay on SK-MEL-28 melanoma, in the assay on SNB-78 CNS, in the assay with TK-10 renal and in the assay on UACC-62 melanoma was more than 100 µM in each case.
Take `CCOP(=O)(OCC)OC1C=CC2CCC1C2` (stereo unspecified): the TGI in the assay with DLD-1 colon, in the assay on DMS 114 small cell lung, in the assay with HOP-18 NSCLC, in the assay with K-562 leukemia, in the assay on LXFL 529 NSCLC and in the assay on SK-MEL-2 melanoma was more than 100 µM each time. Also, the TGI in the assay with SK-MEL-28 melanoma, with SNB-78 CNS, in the assay with TK-10 renal and with UACC-62 melanoma was more than 100 µM in each case.
For the molecule `CC(C)C(=O)Nc1nc2c(ncn2C2OC(CO)C(O)C2O)c(=O)[nH]1` (stereo unspecified), the total growth inhibition concentration (TGI) with DLD-1 colon, with DMS 114 small cell lung, in the assay on HOP-18 NSCLC, in the assay on K-562 leukemia, in the assay on LXFL 529 NSCLC and with SK-MEL-2 melanoma was more than 100 µM in each case. Besides, the TGI in the assay on SK-MEL-28 melanoma, with SNB-78 CNS, with TK-10 renal and in the assay with UACC-62 melanoma was more than 100 µM in each case.
For `CC1COC(C)(C)P(=O)(c2ccccc2)C1` (stereo unspecified), the total growth inhibition concentration (TGI) in the assay with DLD-1 colon, in the assay with DMS 114 small cell lung, with HOP-18 NSCLC, in the assay on K-562 leukemia, in the assay on LXFL 529 NSCLC and in the assay with SK-MEL-2 melanoma was more than 100 µM each time. Moreover, the TGI in the assay on SK-MEL-28 melanoma, in the assay with SNB-78 CNS, in the assay on TK-10 renal and with UACC-62 melanoma was more than 100 µM each time.
As to `CNS(=O)(=O)NNS(=O)(=O)c1ccc(Br)cc1`, the TGI with DLD-1 colon, in the assay with DMS 114 small cell lung, with HOP-18 NSCLC, in the assay on K-562 leukemia, in the assay with LXFL 529 NSCLC and in the assay with SK-MEL-2 melanoma was more than 100 µM throughout. Further, the concentration for total growth inhibition (TGI) in the assay on SK-MEL-28 melanoma, in the assay with SNB-78 CNS, with TK-10 renal and in the assay with UACC-62 melanoma was more than 100 µM throughout.
`CC(C)C(=O)NS(=O)(=O)c1ccccc1`: the total growth inhibition concentration (TGI) with DLD-1 colon, in the assay with DMS 114 small cell lung, in the assay with HOP-18 NSCLC, with K-562 leukemia, with LXFL 529 NSCLC and in the assay with SK-MEL-2 melanoma was more than 100 µM each time. Further, the total growth inhibition concentration (TGI) in the assay on SK-MEL-28 melanoma, in the assay with SNB-78 CNS, with TK-10 renal and in the assay with UACC-62 melanoma was more than 100 µM in each case.
For the molecule `CCC1CCc2c(c(=O)oc3c2cc(OC)c2cccc(OC)c23)C1` (stereo unspecified), the TGI in the assay with DLD-1 colon, in the assay with HOP-18 NSCLC, in the assay with K-562 leukemia, in the assay on LXFL 529 NSCLC, in the assay on SK-MEL-2 melanoma and with SK-MEL-28 melanoma was more than 100 µM throughout. The TGI in the assay with SNB-78 CNS, with TK-10 renal and with UACC-62 melanoma was more than 100 µM throughout.
With `Cc1ccc(NC(=O)CSc2nnc(-c3ccc(N=Cc4ccc(Cl)cc4)cc3)o2)cc1`, the total growth inhibition concentration (TGI) with DMS 114 small cell lung, in the assay with HOP-18 NSCLC, in the assay with K-562 leukemia, in the assay on LXFL 529 NSCLC, in the assay on SK-MEL-2 melanoma and in the assay on SK-MEL-28 melanoma was more than 100 µM each time. For the same molecule, the TGI in the assay with SNB-78 CNS, in the assay on TK-10 renal and in the assay on UACC-62 melanoma was more than 100 µM each time.
With `Cc1c(/C=N/NC(=O)c2ccc(Cl)cc2)c(=O)n(-c2ccccc2)n1C`, the TGI with DLD-1 colon, with DMS 114 small cell lung, with HOP-18 NSCLC, in the assay on K-562 leukemia, in the assay on LXFL 529 NSCLC and with SK-MEL-2 melanoma was more than 100 µM throughout. The TGI in the assay with SK-MEL-28 melanoma, in the assay with SNB-78 CNS, in the assay with TK-10 renal and with UACC-62 melanoma was more than 100 µM in each case.
For `Cc1cc(C)nc(NS(=O)(=O)c2ccc(NC(=O)c3cccc4c(Nc5ccc(S(N)(=O)=O)cc5)c5ccccc5nc34)cc2)n1`, the TGI was more than 100 µM with DLD-1 colon; 42.6 µM in the assay on DMS 114 small cell lung; more than 100 µM with HOP-18 NSCLC; more than 67.6 µM in the assay with K-562 leukemia; more than 100 µM in the assay on LXFL 529 NSCLC; more than 31.1 µM in the assay with SK-MEL-2 melanoma. For the same molecule, the total growth inhibition concentration (TGI) with SK-MEL-28 melanoma is more than 29.3 µM; with SNB-78 CNS, 52.3 µM; in the assay with TK-10 renal it was more than 100 µM; in the assay with UACC-62 melanoma, more than 100 µM.
For `COC(=O)/C=C/c1c(CC=C(C)C)ncn1C`, the TGI in the assay on DLD-1 colon, in the assay with DMS 114 small cell lung, with HOP-18 NSCLC, in the assay with K-562 leukemia, in the assay with LXFL 529 NSCLC and with SK-MEL-2 melanoma was more than 100 µM throughout. The TGI with SK-MEL-28 melanoma, with SNB-78 CNS, in the assay with TK-10 renal and in the assay with UACC-62 melanoma was more than 100 µM each time.
With `COc1cc(C=O)c(-c2cc(OC)c(OC)cc2C=O)cc1OC`, the concentration for total growth inhibition (TGI) with DLD-1 colon was more than 100 µM; with DMS 114 small cell lung, 88.3 µM; in the assay with HOP-18 NSCLC, more than 100 µM; in the assay with K-562 leukemia it was more than 100 µM; in the assay with LXFL 529 NSCLC, more than 100 µM; with SK-MEL-2 melanoma, more than 100 µM. The TGI with SK-MEL-28 melanoma, in the assay on SNB-78 CNS, in the assay with TK-10 renal and with UACC-62 melanoma was more than 100 µM in each case.
As for `CN[C@@H](C)[C@@H](NC)c1ccccc1`, the TGI in the assay on DLD-1 colon, with DMS 114 small cell lung, in the assay on HOP-18 NSCLC, in the assay on K-562 leukemia, in the assay with LXFL 529 NSCLC and in the assay on SK-MEL-28 melanoma was more than 100 µM throughout. In addition, the concentration for total growth inhibition (TGI) with SNB-78 CNS, in the assay with TK-10 renal and in the assay on UACC-62 melanoma was more than 100 µM in each case.
As to `O=C1OCC2C1C1c3ccccc3C(O)c3ccccc3C21` (stereo unspecified), the concentration for total growth inhibition (TGI) with DLD-1 colon, in the assay on DMS 114 small cell lung, in the assay on HOP-18 NSCLC, in the assay on K-562 leukemia, with LXFL 529 NSCLC and with SK-MEL-2 melanoma was more than 100 µM throughout. The TGI in the assay with SK-MEL-28 melanoma, in the assay with SNB-78 CNS, with TK-10 renal and in the assay on UACC-62 melanoma was more than 100 µM each time.
Take `O=C(/C=C/c1ccccc1Cl)NC1C=Nc2ccc([N+](=O)[O-])cc2NC1` (stereo unspecified): the concentration for total growth inhibition (TGI) with DLD-1 colon, in the assay with DMS 114 small cell lung, in the assay with HOP-18 NSCLC, in the assay with K-562 leukemia, with LXFL 529 NSCLC and with SK-MEL-2 melanoma was more than 100 µM in each case. The TGI in the assay on SK-MEL-28 melanoma, in the assay with SNB-78 CNS, in the assay with TK-10 renal and in the assay on UACC-62 melanoma was more than 100 µM in each case.
